Laboratory results as given in article PMC9686985, “Chimeric Peptides Derived from Bovine Lactoferricin and Buforin II: Antifungal Activity against Reference Strains and Clinical Isolates of Candida spp” (Antibiotics, 2022).
Read-outs that look alike come from different tables or passages of the source. Positions of bridges follow the written chain, without caps; N, C: chain ends. Non-standard residues stand in square brackets, D forms with d. Residues, ends and D or L forms follow the SMILES beside them. Chains are numbered I, II in the order given. No end group written: not given here. Ahx = NCCCCCC(=O)O

Key:
Type in all cases: cell-based, Candida albicans
C. albicans 256 HUSI-PUJ [1] = details: for MFC: 24 h; for MIC: 48 h
Procedure: (§1) Antifungal susceptibility testing was carried out using the broth microdilution (BMD) method, following the CLSI M27-A3 guidelines with slight modifications. Briefly, cells (0.5–2.5 × 10^3 CFU/mL) were incubated with peptides (200, 100, 50, 25, 12.5, and 6.25 µg/mL) at 37 °C for 48 h. MICs were visualized and densitometry (595 nm, microplate reader, Bio-Rad, ᵢMark^TM) was used to determine the lowest concentration of peptide that caused a significant decrease (MIC/2 or ≥50%) compared with the growth control (cells incubated in absence of peptide) (n = 3). In order to verify that the peptides were able to kill the yeast cells, the plates were also evaluated for minimum fungicidal concentration (MFC). Briefly, aliquots from each well from susceptibility testing assays were transferred to plates containing Sabouraud dextrose agar (SDA), which were then incubated at 37 °C for 24 h. The highest dilution with no growth on the agar plate was considered to be the MFC.

C. albicans ATCC SC5314 [2] = test system: C. albicans ATCC SC5314
Procedure: as §1

C. albicans 256 = details: for Inhibition of growth: 256, 48 h; for Time-kill result: Fungicide concentration / Time-kill result: Fungistatic concentration: after 48 h of incubation, RPMI 1640, 37 °C, Bioscreen C
Procedure: (§2) A time-kill kinetic assay was carried out according to the method previously described by Pfaller and coworkers with minor modifications. The peptides (C5, C6, C8, and C9) diluted in RPMI were tested at a range of concentrations: 0 (control), 0.2, 0.5, 1, and 2 times the MIC value for each strain. The isolates were subcultured on SBD, and then an inoculum was adjusted to a 0.5–2.5 × 10^3 CFU/mL in an RPMI 1640 medium. Yeast inoculum (150 uL) was added to a 100-well plate containing serial dilutions of the peptides. The plates were incubated with agitation at 37 °C in a plate reader (Bioscreen C MBR automated turbidometric analyzer, Growth Curves Ltd., Helsinki, Finland), which takes hourly absorbance readings. Moreover, fluconazole MICs were used as a control. The readings were analyzed with Bioscreen software (Growth Curves USA, Piscataway, NJ, USA) and GraphPad Prism 8.0.1 (GraphPad Soft-ware, San Diego, CA, USA). Statistical comparisons were made using an analysis of variance (two-way ANOVA) followed by a Tukey–Kramer post hoc test. P values less than 0.005 were considered significant. […] Moreover, previously determined FLC MICs (data not shown) were used as a control.

C. albicans SC5314 = details: for Inhibition of growth: SC5314, 48 h; for Time-kill result: Fungicide concentration / Time-kill result: Fungistatic concentration: after 48 h of incubation, RPMI 1640, 37 °C, Bioscreen C
Procedure: as §2

C. albicans 256 HUSI-PUJ [3] = details: for MICa/A: factor by which the chimera is potentiated in combination: peptide combined with FLC
Procedure: (§3) The in vitro interactions between the peptides (C6, C8, and C9) and the FLC drug were evaluated in a checkerboard assay, as previously described by Cokol et al.. Briefly, each isolate was prepared by picking colonies from an overnight culture in SBD at 37 °C and suspended in a sterile normal saline PBS buffer. The fungal inoculum was adjusted to 0.5 MacFarland and the inoculum was adjusted to 0.5–2.5 × 10^3 CFU/mL. The drug-peptide combinations were formed over a range of concentrations: 0 (control) and 0.06 to 2 times the MIC [51]. The fractional inhibitory concentration index (FICI) was calculated as follows:
(§4) FICI=CML peptide in combination/CMI peptide alone+CML FLC in combination/CMI FLC alone
(§5) The calculated FICI was reported as synergy with values FICI ≤ 0.5, additive FICI > 0.5–1, indifference FICI > 1–4, and antagonism FICI ≥ 4 [52].
(§6) A synergistic effect was considered to be when the effect of the combination exceeded the effects of the individual components. An additive effect was when the effect of the combination was equal to the sum of the effects of the individual components.

C. albicans ATCC SC5314 [4] = details: for Effect of the combination with FLC (by FICI): checkerboard; for MICa/A: factor by which the chimera is potentiated in combination: peptide combined with FLC
Procedure: as §3, §4, §5, §6

[5] = FLC-resistant clinical isolate, aliquots plated on SDA, 37 °C, no growth
[6] = FLC-resistant clinical isolate, broth microdilution CLSI M27-A3, 37 °C, ≥50% decrease vs growth control, n = 3
[7] = FLC-sensitive reference strain, aliquots plated on SDA, 37 °C, 24 h, no growth
[8] = FLC-sensitive reference strain, broth microdilution CLSI M27-A3, 37 °C, 48 h, ≥50% decrease vs growth control, n = 3
[9] = fungistatic = growth inhibition >70% for 48 h
[10] = time-kill curve, peptide at 12.5 µg/mL (4 µM)

MIC (C. albicans 256 HUSI-PUJ [1]; 256 HUSI-PUJ) [µM]	MIC (C. albicans ATCC SC5314 [2]; ATCC SC5314, 48 h) [µM]	MIC (C. albicans 256 HUSI-PUJ [1]; [6]) [µg/mL]	MIC (C. albicans ATCC SC5314 [2]; [8]) [µg/mL]	MICa/A: factor by which the chimera is potentiated in combination (C. albicans 256 HUSI-PUJ [3])	Compound	MFC (C. albicans 256 HUSI-PUJ [1]; 256 HUSI-PUJ) [µM]	MFC (C. albicans ATCC SC5314 [2]; ATCC SC5314, 24 h) [µM]	MFC (C. albicans 256 HUSI-PUJ [1]; [5]) [µg/mL]	MFC (C. albicans ATCC SC5314 [2]; [7]) [µg/mL]	Inhibition of growth (C. albicans 256)	Time-kill result: Fungicide concentration (C. albicans 256; fungicidal = yeast kill ≥99%) [µg/mL]	Time-kill result: Fungistatic concentration (C. albicans 256; [9]) [µg/mL]	Time-kill result: Fungicide concentration (C. albicans 256; value in brackets) [µM]	Time-kill result: Fungistatic concentration (C. albicans 256; value in brackets) [µM]	Inhibition of growth (C. albicans SC5314)	Time-kill result: Fungicide concentration (C. albicans SC5314; fungicidal = yeast kill ≥99%) [µg/mL]	Time-kill result: Fungistatic concentration (C. albicans SC5314; [9]) [µg/mL]	Time-kill result: Fungicide concentration (C. albicans SC5314; value in brackets) [µM]	Time-kill result: Fungistatic concentration (C. albicans SC5314; value in brackets) [µM]	Effect of the combination with FLC (by FICI) (C. albicans ATCC SC5314 [4])	other results
66	131				RRWQWRRLLR-NH2 [C1]	> 131	> 131														
> 183	> 183				RLLRRLLR [BFII (32–35)Pal, reference compound]	> 183	> 183														
37	37	100	100	2	CC(C)C[C@H](NC(=O)[C@H](CC(C)C)NC(=O)[C@H](CCCNC(=N)N)NC(=O)CCCCCNC(=O)[C@H](CCCCNC(=O)[C@H](CCCNC(=N)N)NC(=O)[C@H](Cc1c[nH]c2ccccc12)NC(=O)[C@H](CCC(N)=O)NC(=O)[C@H](Cc1c[nH]c2ccccc12)NC(=O)[C@H](CCCNC(=N)N)NC(=O)[C@@H](N)CCCNC(=N)N)NC(=O)[C@H](CCCNC(=N)N)NC(=O)[C@H](Cc1c[nH]c2ccccc12)NC(=O)[C@H](CCC(N)=O)NC(=O)[C@H](Cc1c[nH]c2ccccc12)NC(=O)[C@H](CCCNC(=N)N)NC(=O)[C@@H](N)CCCNC(=N)N)C(=O)N[C@@H](CCCNC(=N)N)C(N)=O [C8] (I: H-RRWQWRK[Ahx]RLLR-NH2 / II: H-RRWQWR; amide I:7-II:C; N-terminus assumed)	37	37	100	100	more than 90%	200	100	73	37	more than 90%	200	100	73	37	synergistic	Incubation time up to which yeast growth was inhibited (C. albicans 256; time-kill curve, peptide at 100 µg/mL): ~40 h; Incubation time up to which yeast growth was completely inhibited (C. albicans SC5314; time-kill curve, peptide at 100 µg/mL (37 µM)): about 23 h; Effect of the combination with FLC (by FICI) (C. albicans 256 HUSI-PUJ [3]; checkerboard): indifferent; MICa/A: factor by which the chimera is potentiated in combination (C. albicans ATCC SC5314 [4]): 8
15	15	50	50	2	CC(C)C[C@H](NC(=O)[C@H](CC(C)C)NC(=O)[C@H](CCCNC(=N)N)NC(=O)[C@H](CCCNC(=N)N)NC(=O)[C@H](CC(C)C)NC(=O)[C@H](CC(C)C)NC(=O)[C@H](CCCNC(=N)N)NC(=O)CCCCCNC(=O)[C@H](CCCCNC(=O)[C@H](CCCNC(=N)N)NC(=O)[C@H](Cc1c[nH]c2ccccc12)NC(=O)[C@H](CCC(N)=O)NC(=O)[C@H](Cc1c[nH]c2ccccc12)NC(=O)[C@H](CCCNC(=N)N)NC(=O)[C@@H](N)CCCNC(=N)N)NC(=O)[C@H](CCCNC(=N)N)NC(=O)[C@H](Cc1c[nH]c2ccccc12)NC(=O)[C@H](CCC(N)=O)NC(=O)[C@H](Cc1c[nH]c2ccccc12)NC(=O)[C@H](CCCNC(=N)N)NC(=O)[C@@H](N)CCCNC(=N)N)C(=O)N[C@@H](CCCNC(=N)N)C(N)=O [C9] (I: H-RRWQWRK[Ahx]RLLRRLLR-NH2 / II: H-RRWQWR; amide I:7-II:C; N-terminus assumed)	15	15	50	50	more than 90%	25	13	8	4	more than 90%	25	13	8	4	synergistic	Incubation time up to which strain growth was completely inhibited (C. albicans 256; [10]): approximately 20 h; Incubation time up to which strain growth was completely inhibited (C. albicans SC5314; [10]): approximately 20 h; MICa: MIC of the chimeric peptide alone (C. albicans 256 HUSI-PUJ [3]; 256 HUSI-PUJ): 50 µg/mL; MICa: MIC of the chimeric peptide alone (C. albicans ATCC SC5314 [4]; ATCC SC5314): 100 µg/mL; MICa/A: factor by which the chimera is potentiated in combination (C. albicans ATCC SC5314 [4]): 4
